Test system: pseudo-lentivectors that express the D614G mutant of the SARS-CoV-2 spike protein
Assay type: cell-based

SMILES: CCN1C(=O)C2SSSSC1C(=O)N2CC(=O)O (centres unmarked) [compound 3]
- Concentration at onset of inhibition of pseudo-lentivector entry: 50 µM

SMILES: O=S1(=O)C[C@H](O)[C@H](O)CS1 [compound 16]
- IC50 (read-out: IC50, inhibition of pseudo-lentivector entry): ~50 µM

— paper PMC8179002, “Inhibitors of thiol-mediated uptake” (Chemical Science, 2020)
